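GI50 = concentration required for 50% inhibition of growth. TGI denotes the concentration required for complete inhibition of growth.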
What was measured:
Assay in all cases: NCI tumour cell line growth inhibition, 384-well format
786-0 renal = tested on: 786-0 renal
A498 renal = tested on: A498 renal
A549 NSCLC = tested on: A549 NSCLC
ACHN renal = tested on: ACHN renal
BT-549 breast = tested on: BT-549 breast
CAKI-1 renal = tested on: CAKI-1 renal
CCRF-CEM leukemia = tested on: CCRF-CEM leukemia
COLO 205 colon = tested on: COLO 205 colon
DU-145 prostate = tested on: DU-145 prostate
EKVX NSCLC = tested on: EKVX NSCLC
HCC-2998 colon = tested on: HCC-2998 colon
HCT-116 colon = tested on: HCT-116 colon
HCT-15 colon = tested on: HCT-15 colon
HL-60(TB) leukemia = tested on: HL-60(TB) leukemia
HOP-62 NSCLC = tested on: HOP-62 NSCLC
HOP-92 NSCLC = tested on: HOP-92 NSCLC
HS 578T breast = tested on: HS 578T breast
HT29 colon = tested on: HT29 colon
IGROV1 ovarian = tested on: IGROV1 ovarian
K-562 leukemia = tested on: K-562 leukemia
KM12 colon = tested on: KM12 colon
LOX IMVI melanoma = tested on: LOX IMVI melanoma
M14 melanoma = tested on: M14 melanoma
MALME-3M melanoma = tested on: MALME-3M melanoma
MCF7 breast = tested on: MCF7 breast
MDA-MB-231 breast = tested on: MDA-MB-231 breast
MDA-MB-435 melanoma = tested on: MDA-MB-435 melanoma
MDA-MB-468 breast = tested on: MDA-MB-468 breast
MOLT-4 leukemia = tested on: MOLT-4 leukemia
NCI-H226 lung = tested on: NCI-H226 lung
NCI-H23 lung = tested on: NCI-H23 lung
NCI-H322M lung = tested on: NCI-H322M lung
NCI-H460 NSCLC = tested on: NCI-H460 NSCLC
NCI-H522 lung = tested on: NCI-H522 lung
NCI/ADR-RES ovarian = tested on: NCI/ADR-RES ovarian
OVCAR-3 ovarian = tested on: OVCAR-3 ovarian
OVCAR-4 ovarian = tested on: OVCAR-4 ovarian
OVCAR-5 ovarian = tested on: OVCAR-5 ovarian
PC-3 prostate = tested on: PC-3 prostate
RPMI-8226 leukemia = tested on: RPMI-8226 leukemia
RXF 393 renal = tested on: RXF 393 renal
SF-268 CNS = tested on: SF-268 CNS
SF-295 CNS = tested on: SF-295 CNS
SF-539 CNS = tested on: SF-539 CNS
SK-MEL-2 melanoma = tested on: SK-MEL-2 melanoma
SK-MEL-28 melanoma = tested on: SK-MEL-28 melanoma
SK-MEL-5 melanoma = tested on: SK-MEL-5 melanoma
SK-OV-3 ovarian = tested on: SK-OV-3 ovarian
SN12C renal = tested on: SN12C renal
SNB-19 CNS = tested on: SNB-19 CNS
SNB-75 CNS = tested on: SNB-75 CNS
SR leukemia = tested on: SR leukemia
SW-620 colon = tested on: SW-620 colon
T-47D breast = tested on: T-47D breast
TK-10 renal = tested on: TK-10 renal
U251 glioblastoma = tested on: U251 glioblastoma
UACC-257 melanoma = tested on: UACC-257 melanoma
UACC-62 melanoma = tested on: UACC-62 melanoma
UO-31 renal = tested on: UO-31 renal

NC(=O)Nc1cc(-c2cccc(F)c2)sc1C(=O)N[C@H]1CCCNC1
GI50 ([…]-0 renal): 0.179 µM | TGI (786-0 renal): 1.05 µM | GI50 (A498 renal): 0.0323 µM | TGI (A498 renal): 0.144 µM | GI50 (A549 NSCLC): 0.315 µM | TGI (A549 NSCLC): 1.57 µM | GI50 (ACHN renal): 0.0497 µM | TGI (ACHN renal): 0.295 µM | GI50 (BT-549 breast): 0.0166 µM | TGI (BT-549 breast): 0.105 µM | GI50 (CAKI-1 renal): 0.294 µM | TGI (CAKI-1 renal): 1.5 µM | GI50 (CCRF-CEM leukemia): 0.0404 µM | TGI (CCRF-CEM leukemia): 0.192 µM | GI50 (COLO 205 colon): 0.261 µM | TGI (COLO 205 colon): 1.08 µM | GI50 (DU-145 prostate): 0.29 µM | TGI (DU-145 prostate): 1.34 µM | GI50 (EKVX NSCLC): 0.389 µM | TGI (EKVX NSCLC): 2.15 µM | GI50 (HCC-2998 colon): 0.0106 µM | TGI (HCC-2998 colon): 0.149 µM | GI50 (HCT-116 colon): 1 µM | TGI (HCT-116 colon): 2.67 µM | GI50 (HCT-15 colon): 1.28 µM | TGI (HCT-15 colon): 2.89 µM | GI50 (HL-60(TB) leukemia): 0.12 µM | TGI (HL-60(TB) leukemia): 0.245 µM | GI50 (HOP-62 NSCLC): 0.146 µM | TGI (HOP-62 NSCLC): 0.565 µM | GI50 (HOP-92 NSCLC): 0.0381 µM | TGI (HOP-92 NSCLC): 0.407 µM | GI50 (HS 578T breast): 0.0132 µM | TGI (HS 578T breast): 0.284 µM | GI50 (HT29 colon): 0.221 µM | TGI (HT29 colon): 0.7 µM | GI50 (IGROV1 ovarian): 0.0796 µM | TGI (IGROV1 ovarian): 0.887 µM | GI50 (K-562 leukemia): 0.103 µM | TGI (K-562 leukemia): 0.237 µM | GI50 (KM12 colon): 0.022 µM | TGI (KM12 colon): 0.228 µM | GI50 (LOX IMVI melanoma): 0.359 µM | TGI (LOX IMVI melanoma): 1.24 µM | GI50 (M14 melanoma): 0.0451 µM | TGI (M14 melanoma): 0.224 µM | GI50 (MALME-3M melanoma): 0.185 µM | TGI (MALME-3M melanoma): 1.74 µM | GI50 (MCF7 breast): 0.0533 µM | TGI (MCF7 breast): 12.2 µM | GI50 (MDA-MB-231 breast): 0.3 µM | TGI (MDA-MB-231 breast): 1.57 µM | GI50 (MDA-MB-435 melanoma): 0.143 µM | TGI (MDA-MB-435 melanoma): 0.302 µM | GI50 (MDA-MB-468 breast): 0.202 µM | TGI (MDA-MB-468 breast): 0.698 µM | GI50 (MOLT-4 leukemia): 0.0406 µM | TGI (MOLT-4 leukemia): 0.189 µM | GI50 (NCI-H226 lung): 0.508 µM | TGI (NCI-H226 lung): 2.3 µM | GI50 (NCI-H23 lung): 0.0665 µM | TGI (NCI-H23 lung): 0.267 µM | GI50 (NCI-H322M lung): 0.161 µM | TGI (NCI-H322M lung): 0.967 µM | GI50 (NCI-H460 NSCLC): 0.284 µM | TGI (NCI-H460 NSCLC): 2.06 µM | GI50 (NCI-H522 lung): 0.128 µM | TGI (NCI-H522 lung): 0.589 µM | GI50 (NCI/ADR-RES ovarian): 9.19 µM | TGI (NCI/ADR-RES ovarian): 23 µM | GI50 (OVCAR-3 ovarian): 0.103 µM | TGI (OVCAR-3 ovarian): 0.539 µM | GI50 (OVCAR-4 ovarian): 0.0696 µM | TGI (OVCAR-4 ovarian): 0.348 µM | GI50 (OVCAR-5 ovarian): 0.289 µM | TGI (OVCAR-5 ovarian): 1.62 µM | GI50 (PC-3 prostate): 0.259 µM | TGI (PC-3 prostate): 3.96 µM | GI50 (RPMI-8226 leukemia): 0.0349 µM | TGI (RPMI-8226 leukemia): 0.186 µM | GI50 (RXF 393 renal): 0.0121 µM | TGI (RXF 393 renal): 0.0432 µM | GI50 (SF-268 CNS): 0.132 µM | TGI (SF-268 CNS): 0.91 µM | GI50 (SF-295 CNS): 0.142 µM | TGI (SF-295 CNS): 0.461 µM | GI50 (SF-539 CNS): 0.0228 µM | TGI (SF-539 CNS): 0.104 µM | GI50 (SK-MEL-2 melanoma): 0.108 µM | TGI (SK-MEL-2 melanoma): 0.284 µM | GI50 (SK-MEL-28 melanoma): 1.5 µM | TGI (SK-MEL-28 melanoma): 8.6 µM | GI50 (SK-MEL-5 melanoma): 0.127 µM | TGI (SK-MEL-5 melanoma): 0.408 µM | GI50 (SK-OV-3 ovarian): 0.136 µM | TGI (SK-OV-3 ovarian): 0.38 µM | GI50 (SN12C renal): 0.13 µM | TGI (SN12C renal): 0.968 µM | GI50 (SNB-19 CNS): 0.377 µM | TGI (SNB-19 CNS): 2.29 µM | GI50 (SNB-75 CNS): 0.188 µM | TGI (SNB-75 CNS): 1.26 µM | GI50 (SR leukemia): 0.0365 µM | TGI (SR leukemia): 0.154 µM | GI50 (SW-620 colon): 0.595 µM | TGI (SW-620 colon): 2.12 µM | GI50 (T-47D breast): 12.7 µM | TGI (T-47D breast): 25.4 µM | GI50 (TK-10 renal): 0.109 µM | TGI (TK-10 renal): 0.357 µM | GI50 (U251 glioblastoma): 0.385 µM | TGI (U251 glioblastoma): 2.88 µM | GI50 (UACC-257 melanoma): 1.97 µM | TGI (UACC-257 melanoma): 11.1 µM | GI50 (UACC-62 melanoma): 0.319 µM | TGI (UACC-62 melanoma): 3.33 µM | GI50 (UO-31 renal): 0.362 µM | TGI (UO-31 renal): 1.51 µM
